Results on 5 molecules are retold here after ChEMBL document CHEMBL1131707, “Methionyl adenylate analogues as inhibitors of methionyl-tRNA synthetase” (1999).

As a reminder, the MIC is the least concentration at which growth counts as inhibited. A high value points to weaker potency.

Converted amounts (≈) assume the structure as drawn. Some results are limits rather than exact numbers.

One assay relates to Escherichia coli. Kind of assay: Antibacterial activity of compound was determined against Escherichia coli JM109. Type of assay: functional.
The subject of a further assay is Klebsiella aerogenes. Kind of assay: Antibacterial activity of compound was determined against Klebsiella aerogenes 1976E. In kind it is functional.
Another assay concerns Klebsiella pneumoniae. Kind of assay: Antibacterial activity of compound was determined against Klebsiella pneumoniae 2011E. In kind it is functional.
A further assay deals with Pseudomonas aeruginosa. Kind of assay: Antibacterial activity of compound was determined against Pseudomonas aeruginosa 1912. Type of assay: functional.
For another assay, the system named is Staphylococcus aureus. Kind of assay: Antibacterial activity of compound was determined against Staphylococcus aureus 1538p. Type of assay: functional.
The test system of another assay is Salmonella typhimurium. Kind of assay: Antibacterial activity of compound was determined against Salmonella Typhimurium 14028. In kind it is functional, Salmonella enterica subsp. enterica serovar Typhimurium. The settings on record: Salmonella enterica.
The subject of another assay is Bacillus cereus. Kind of assay: Antibacterial activity of compound was determined against Bacillus cereus ATCC 27348. In kind it is functional.
Assay [1] relates to Staphylococcus epidermidis. Kind of assay: Antibacterial activity of compound was determined against […] 887E. In kind it is functional.

`CSCC[C@H](N)C(=O)NO`: the MIC was 0.5 µg/mL (≈ 3.04 µM) against Escherichia coli; 4 µg/mL (≈ 24.4 µM) in the assay on Klebsiella aerogenes; > 64 µg/mL against Klebsiella pneumoniae; > 64 µg/mL against Pseudomonas aeruginosa; > 64 µg/mL against Staphylococcus aureus; 8 µg/mL (≈ 48.7 µM) in the assay with Salmonella typhimurium. For the same molecule, the MIC (against Bacillus cereus; in assay [1]) was > 64 µg/mL throughout.
`CSCC[C@H](N)C(=O)OC[C@H]1O[C@@H](n2cnc3c(N)ncnc32)[C@H](O)[C@@H]1O`: the MIC is 0.5 µg/mL (≈ 1.25 µM) in the assay on Escherichia coli; > 64 µg/mL against Klebsiella aerogenes; > 64 µg/mL against Klebsiella pneumoniae; > 64 µg/mL in the assay on Pseudomonas aeruginosa; > 64 µg/mL against Staphylococcus aureus; > 64 µg/mL in the assay on Salmonella typhimurium. In addition, the MIC was 32 µg/mL (≈ 80.3 µM) with Bacillus cereus and > 64 µg/mL in assay [1].
`CSCC[C@H](N)C(=O)NOC[C@H]1OC(n2cnc3c(N)ncnc32)[C@H](O)[C@@H]1O` (stereo not given in full): the minimum inhibitory concentration (MIC) is 8 µg/mL (≈ 19.3 µM) against Escherichia coli; > 64 µg/mL against Klebsiella aerogenes; > 64 µg/mL with Klebsiella pneumoniae; > 64 µg/mL with Pseudomonas aeruginosa; > 64 µg/mL in the assay with Staphylococcus aureus; > 64 µg/mL in the assay on Salmonella typhimurium. Also, the minimum inhibitory concentration (MIC) (with Bacillus cereus; in assay [1]) was > 64 µg/mL throughout.
`CSCC[C@H](N)C(=O)NC[C@H]1OC(n2cnc3c(N)ncnc32)[C@H](O)[C@@H]1O` (stereo not given in full): the MIC in the assay on Escherichia coli was 1 µg/mL (≈ 2.52 µM); in the assay on Klebsiella aerogenes it was > 64 µg/mL; in the assay on Klebsiella pneumoniae, > 64 µg/mL; with Pseudomonas aeruginosa it was > 64 µg/mL; with Staphylococcus aureus, > 64 µg/mL; with Salmonella typhimurium it was > 64 µg/mL. The minimum inhibitory concentration (MIC) (in the assay with Bacillus cereus; in assay [1]) was > 64 µg/mL each time.
With `CSCC[C@H](N)C(=O)N(O)C[C@H]1OC(n2cnc3c(N)ncnc32)[C@H](O)[C@@H]1O` (stereo not given in full), the MIC is 0.5 µg/mL (≈ 1.21 µM) against Escherichia coli; > 64 µg/mL in the assay with Klebsiella aerogenes; > 64 µg/mL in the assay with Klebsiella pneumoniae; > 64 µg/mL against Pseudomonas aeruginosa; > 64 µg/mL in the assay with Staphylococcus aureus; > 64 µg/mL in the assay on Salmonella typhimurium. The MIC against Bacillus cereus is 8 µg/mL (≈ 19.3 µM); in assay [1], > 64 µg/mL.
